# How the values were obtained:
# [1] = Conversion of I3P to KynA under cell-free conditions; type: physicochemical
# U-87MG cells = assay: Wound healing (migration) assay with Ctrl and IL4I1-expressing glioblastoma cells; type: cell-based, human; conditions: ectopically IL4I1-expressing U-87MG cells, 1 μM SR1, FIG. 3C
# Procedure: Cells were seeded in 2-well cell culture inserts (ibidi, 80209) placed in 24-well plates. For U-87MG cells, as well as Ctrl and IL4I1-expressing U-87MG cells, 3×10^4 cells in 100 μL medium per well of cell culture insert were seeded. In the case of Ctrl and IL4I1-expressing U-251MG cells, 4×10^4 in 100 μL medium per well of cell culture insert were seeded. Cells were incubated for 16 h, inserts were removed and 1 mL of complete DMEM medium was added to each well of the plate. Cell migration was monitored by taking pictures at indicated time points, until gap (500 μm+/−100 μm) was covered by cells. In the case where U-87MG cells were treated with I3P or SR1, treatments were applied at the time of seeding the cells in the 2 well cell culture inserts. In addition, after 16 h incubation time and insert removal, 1 mL of complete DMEM medium containing treatments was applied to cells and kept throughout the assay. For each independent experiment, 3 pictures per well were taken and each condition was carried out at least in 3 wells. Pictures were taken with an ECLIPSE Ti-E/B inverted microscope (Nikon) with the 4×objective and using the NIS Elements software version 4.13.04. Pictures were analyzed with TScratch software version 1.0 (Geback et al., 2009). Cell migration was assessed by calculating the percentage of covered area for each time point normalized to the area at the 0 h time point.
# advanced melanoma [2] = conditions: epacadostat in combination with the anti-PD-1 mAb pembrolizumab, advanced melanoma (Long et al., 2019); cited from earlier work
# advanced melanoma [3] = assay: RNA-seq of advanced melanoma patients before and on nivolumab treatment (Riaz et al., GSE91061); type: in vivo, human
# Text: RNA-seq datasets-Raw counts and metadata were downloaded from GEO using GEOquery (Davis and Meltzer, 2007). The harmonized HT-Seq counts and Fragments Per Kilobase of transcript per Million mapped reads (FPKM) of TCGA datasets were downloaded using TCGAbiolinks (Colaprico et al., 2016) from Genomic Data Commons (GDC) (https://gdc.cancer.gov/), and only patients with the identifier “primary tumor” were retained, with the exception of melanoma that was split into datasets for primary and metastatic cohorts. The FPKM values were converted to transcripts per million (TPMs) (Li and Dewey, 2011). TPM data of normal tissues were downloaded from the Genotype-Tissue Expression (GTEx) dataset (https://gtexportal.org/home/). All TPM values were log 2 transformed. Raw counts of the Riaz et al. […] (Riaz et al., 2017) advanced melanoma dataset were downloaded from https://github.com/riazn/bms038_analysis, and based on principle component analysis one outlier patient pair was removed (Pt-84). RNA-seq counts were saved as DGELists (Robinson et al., 2010). Genes with less than 10 counts were filtered followed by trimmed mean of M values (TMM) normalization (Robinson and Oshlack, 2010) and variance modeling using voom (Law et al., 2014).
# [4] = advanced melanoma patients, before vs after nivolumab, FIG. 8C, re-analysis of Riaz et al. 2017
molecule,measurement,setting,value
"O=C(O)C(=O)Cc1c[nH]c2ccccc12 [I3P, Indole-3-pyruvic acid]",Formation of KynA from I3P,[1]; data not shown,formed spontaneously
same,Formation of KynA from I3P in the presence of H2O2,"[1]; with H2O2, data not shown",enhanced
CC(C)n1cnc2c(NCCc3ccc(O)cc3)nc(-c3csc4ccccc34)nc21 [SR1],IL4I1-mediated motility of AHR-proficient cells,U-87MG cells,reversed
NS(=O)(=O)NCCNc1nonc1C(=NO)Nc1ccc(F)c(Br)c1 [epacadostat],Clinical benefit in phase III trial,advanced melanoma [2],failed
nivolumab: anti-PD-1 monoclonal antibody (mAb) nivolumab,AHR activation (AHR signature),"advanced melanoma [3]; advanced melanoma patients after nivolumab, FIG. 8D",resulted in AHR activation
same,Hallmark of cancer gene set enrichment,"advanced melanoma [3]; advanced melanoma patients before vs on Nivolumab therapy, FIG. 10",strong upregulation of inflammatory hallmark gene signatures
same,IDO1 expression,advanced melanoma [3]; [4],induced
same,IL4I1 expression,advanced melanoma [3]; [4],induced
same,IL4I1 expression,"advanced melanoma [3]; advanced melanoma patients, before vs after nivolumab, FIG. 8C, re-analysis of Riaz et al. 2017, listed as Nivolumab",higher expression of IL4I1
same,IL4I1 expression in ipilimumab-naïve patients,"advanced melanoma [3]; ipilimumab-naïve advanced melanoma patients, response to nivolumab, FIG. 8E",significant IL4I1 increase

# — patent publication US20230032216A1, “INTERLEUKIN-4-INDUCED GENE 1 (IL4I1) AND RESPECTIVE METABOLITES AS BIOMARKERS FOR CANCER” (DEUTSCHES KREBSFORSCHUNGSZENTRUM STIFTUNG DES ÖFFENTLICHEN …, priority 2019, published 2023)
